Results as given in US11243205B2, “Method of diagnosis of breast cancer” (LA TROBE UNIVERSITY, priority 2015, dated 2022).

Legend:
4T1.2-luc2 cells = experiment: poly(I:C) treatment of mice bearing 4T1.2-luc2 mammary fat pad tumours, metastasis by bioluminescence and QPCR; assay type: in vivo, balb/c mice; settings: 25 ug poly(I:C) 3x weekly IV from day 4; primary tumour resected at 0.4 g; bioluminescence and QPCR of luciferase vs vimentin; *p<0.05, **p<0.01
Experimental: From day 4, mice were treated with 25 ug poly(I:C) or control 3× weekly IV. After primary tumour resection at 0.4 g, mice were monitored for metastasis by bioluminescence (A) and by QPCR analysis of luciferase expression compared to vimentin at end point (B). *p<0.05, **p<0.01.
Expression of Irf9 is knocked out in balb/c (66c14, 4T1) and C57 B1/6 (EO771, PyMT) mouse cell lines and the impact on tumour cell proliferation and orthotopic tumour growth and metastasis in vivo, is required. Associated changes in tumour infiltating and circulating immune cells, impact on tumour cell susceptibility to immune effector cells in vitro and the impact of NK cell specific loss of IFN signalling is measured. • a) Using TALEN technology (Boch J. TALEs of genome targeting. Nature biotechnology. 2011; 29(2):135-6) an Irf9 knockout 4T1 cell line has been generated (FIG. 5). This is repeated in 66c14, EO771 and PyMT cell lines. Given that Irf7 is induced by the ISGF3 complex of STAT1/2 and Irf9, Irf9 loss will likely directly result in reduction of Irf7. Irf7 we can also be knocked out directly in these cells. • The impact of Irf9 loss is measured on cellular proliferation using the SRB assay. […] The activation and function of NK cells is measured by measuring the expression of NKG2D, DNAM-1 and IFNγ on NKp46^+ NK cells. […]

4T1.2-Luc2 = experiment: neo-adjuvant poly(I:C) therapy, primary tumour growth and survival; assay type: in vivo, Balb/c mice
Experimental: Female 8-week-old Balb/c mice were administered poly(I:C) (25 μg, I.V., thrice weekly) and/or doxorubicin (4 mg/kg, twice weekly) beginning 2 days post tumour cell inoculation (100,000 4T1.2-Luc2 IMFP). Differences in primary tumour growth were detectable 6 days after tumour cell inoculation using bioluminescent imaging (of four mice representative of the larger cohort) (A). Therapy was ceased and primary tumours were surgically removed and weighed 12 days post tumour cell injection (B). n=10 mice per group, error bars represent the 95% CI, *p<0.05, **p<0.01, ***p<0.001 using Student's t-tests.
Mice used in FIG. 2 continued to undergo weekly bioluminescent imaging to visualise the kinetics of metastatic spread. (A) Images taken 19 and 23 days post tumour cell inoculation are of the same four mice in identical order and representative of the larger cohort. (B) Mice were individually sacrificed at first signs of metastatic distress and dates recorded to generate Kaplan-Meier survival estimates. […]
Tumour-bearing mice are treated with poly(I:C), a stable derivative of poly(I:C):poly ICLC that is currently in clinical trials (Hiltonol™, Oncovir) or recombinant IFNα1 in early and late treatment settings and the impact of such treatments on immune activation and function, primary tumour growth and metastasis is measured. […]

PD-L1 = experiment: FACS analysis for PD-L1 cell surface expression after interferon treatment; assay type: cell-based; settings: IFNα 1000 IU/ml, 48 hours, **p<0.01
Experimental: A loss of IRF9 causes PD-L1 expression to be increased after IFNα stimulation. FACS analysis for PD-L1 cell surface expression using PE tagged anti-PD-L1, MIH5 (1:50). Cells were treated with IFNα (1000 IU/ml) or IFNγ (10 ng/ml) for 48 hours prior to FACS. Data is represented as normalised mean fluorescence intensity (MFI). Error bars represent SEM, n=3. Statistical significance values equal: **p<0.01.

poly(I:C)
metastasis to lung and bone (4T1.2-luc2 cells): reduces metastasis to lung and bone
survival (Kaplan-Meier) (4T1.2-Luc2; neo-adjuvant therapy ceased day 12, mice sacrificed at first signs of metastatic distress, ***p<0.001): prolongs survival
primary tumour growth (4T1.2-Luc2; poly(I:C) 25 μg I.V. thrice weekly from 2 days post inoculation, bioluminescence day 6, tumour weight day 12): reduces primary tumour growth

IFNα
PD-L1 expression in cells with loss of IRF9 (PD-L1): increased
